Reference: patent publication US10857136B2, “Compounds for use in the prevention and/or treatment of non-alcoholic fat liver disease and non-alcoholic steatohepatitis” (SJT MOLECULAR RESEARCH, SL, priority 2017, dated 2020)

Key:
Type in all cases: in vivo
[1] = test system: DIO-NASH mice (C57Bl/6J male mice); assay: Liver fibrosis: collagen type I (col1a1) IHC staining in DIO-NASH mice; conditions: 50 mg/kg, p.o., b.i.d., 8 weeks
Experimental: To assess the effect of the compounds of the invention in fibrosis of liver in the treatment of non-alcoholic fat liver disease, the collagen type I (a fibrosis marker) in liver was measured after the 8 weeks of the study where DIO-NASH mice (C57Bl/6J male mice) were treated with a hydrochloride salt of compound 4a during 8 weeks (50 mg/kg, p.o., b.i.d.), versus a pathological control of DIO-NASH mice and a non-pathological control LEAN-CHOW mice, both treated with the vehicle (0.9% NaCl).
Type I collagen content was measured by IHC staining: Type I collagen (Southern Biotech, Cat. 1310-01) IHC was performed using standard procedures. Briefly, after antigen retrieval and blocking of endogenous peroxidase activity, liver slides were incubated with primary antibody. The primary antibody was detected using biotinylated secondary antibody and amplified using a vectastain-TSA-vectastain method a polymeric HRP-linker antibody conjugate. Next, the primary antibody was visualized with DAB as chromogen. Finally, sections were counterstained in hematoxylin and cover-slipped.

[2] = test system: DIO-NASH mice (C57Bl/6J male mice); assay: Liver toxicity: plasma ALT and AST, 8 weeks assay in DIO-NASH mice; conditions: 50 mg/kg, p.o., b.i.d., end of treatment, vs DIO-NASH vehicle
Experimental: The assay was carried out to evaluate the effect of the compounds of the invention on liver toxicity for animals with non-alcoholic fat liver disease (DIO-NASH mice). For this assay, the effect of compound 4a in plasma Alanine Aminotransferase (ALT) and in plasma Aspartate Aminotransferase (AST) was evaluated. DIO-NASH mice (C57Bl/6J male mice) were treated with a hydrochloride salt of compound 4a during 8 weeks (50 mg/kg, p.o., b.i.d.), versus a pathological control of DIO-NASH mice and a non-pathological control LEAN-CHOW mice, both treated with the vehicle (0.9% NaCl). The animals were kept under the same conditions were used as in example 2.2. The DIO-NASH mice group were put on high fat diet (40% AMLN diet, D09100301 Research Diets, USA) and a control group (LEAN-CHOW) was put on a regular chow diet (Altromin 1324, Brogaarden, Denmark) for 35 weeks prior to the study.
To evaluate Alanine transaminase (ALT) and Aspartate transaminase (AST), blood samples were collected in heparinized tubes and plasma was separated and stored at −80° C. until analysis. ALT and AST were measured using commercial kits (Roche Diagnostics, Germany) on the Cobas™ C-501 autoanalyzer according to the manufacturer's instructions.

[3] = test system: DIO mice (C57Bl/6J male mice); assay: Liver weight, 36 days assay in DIO mice; conditions: 50 mg/kg orally twice daily, after 36 days, vs saline control and metformin 150 mg/kg
Experimental: To assess the performance of the compounds disclosed decreasing liver overweight, DIO mice (C57Bl/6J male mice) were treated with compounds 4a and 5a during 36 days, versus a control of DIO mice treated with vehicle (0.9% NaCl) and DIO mice treated with Metformin as a positive control.
For the assessment, 60 C57Bl/6J male mice (16-week-old at delivery and 40 g of average weight), obtained from Charles River France, were put on high fat diet for 10 weeks. The animals were housed in ventilated and enriched housing cages (310×125×127 mm^3) throughout the experimental phase. Animals' cages litters were changed at least once a week. Mice were housed in groups of 10 mice on a normal 12 hours light cycle (at 08:00 pm lights were switched off), at 22±2° C. and 50±10% relative humidity. After reception, mice were maintained for three additional acclimation weeks. During the whole test (acclimation+treatment phase) a high fat diet (D12492; purchased from Research Diet Inc 60% fat) and tap water were provided ad libitum.
After the acclimation period, mice were fasted for 6 hours and blood glucose and plasma insulin were measured. Ten animals, those with lower blood glucose/plasma insulin, were discarded from the study. Then, the others were randomized into 5 homogenous groups (n=10 mice per group) according to their blood glucose/plasma insulin levels (HOMA-IR) and body weight. […]

[4] = test system: DIO-NASH mice (C57Bl/6J male mice); assay: Liver weight, 8 weeks assay in DIO-NASH mice; conditions: 50 mg/kg, p.o., b.i.d., vs DIO-NASH vehicle
Experimental: The animals were kept and examined under the same conditions were used as in example 2.2. The liver biopsies were also carried out under the same conditions as in example 2.2.
To assess the effect of compound 4a on liver weight of mice with non-alcoholic fat liver disease, DIO-NASH mice (C57Bl/6J male mice) were treated with a hydrochloride salt of compound 4a during 8 weeks (50 mg/kg, p.o., b.i.d.), versus a pathological control of DIO-NASH mice and a non-pathological control LEAN-CHOW mice, both treated with the vehicle (0.9% NaCl). The DIO-NASH mice group were put on high fat diet (40% AMLN diet, D09100301 Research Diets, USA) and a control group (LEAN-CHOW) was put on a regular chow diet (Altromin 1324, Brogaarden, Denmark) for 35 weeks prior to the study.

Compound: COc1ccc(-c2nc(C(=O)NCCN)cc3c2[nH]c2ccccc23)cc1 [Compound 4a, N(-ethylamine)-1-benzosubstituted-β-carboline-3-carboxamide]
- anti-type I collagen (col1a1) staining, representative images of liver samples ([1]; end of study): visible change in this fibrosis marker
- total content of liver collagen type 1 (col1a1) determined by morphometry ([1]; vs DIO-NASH vehicle): reduced total liver col1a1
- plasma ALT [2]: reduced the plasma ALT levels
- plasma AST [2]: reduced the plasma AST levels
- liver weight (liver overweight) [3]: lower liver weight than either mice treated with metformin or than the control animals
- total liver weight [4]: reduced liver weight
